The subject of the assay is BDF1 mice, intracerebral L1210 leukemia, survival T/C. Description: NCI In Vivo Anticancer Drug Screen. Data for tumor model L1210 Leukemia (intracerebral) in B6D2F1 (BDF1) mice. The conditions noted are these: higher = longer survival. How it is done:
The antitumor activity of compounds was measured in mice bearing transplantable tumors. Survival or tumor size were measured and the results are expressed as the measurement made in the treated group (T) divided by the measurement made in the vehicle treated control group (C). The tumor model used in this assay is L1210 Leukemia (intracerebral) in B6D2F1 (BDF1) mice

The structures appear in SMILES notation. “And” between values parts separate entries of the source, which are not always exact repeats. Equal values may be shown once. Inconclusive results and toxic doses are left out.

For `CN(N=O)C(=O)N[C@@H](C=O)[C@@H](O)[C@H](O)[C@H](O)CO`, the T/C reads like this: (endpoint: mean survival time, dose: 15.0 mg/kg/injection, schedule: Q01DX009 (ip), vehicle: saline) 105 % of control; (endpoint: mean survival time, dose: 22.0 mg/kg/injection, schedule: Q01DX009 (ip), vehicle: other) 98 % of control; (endpoint: mean survival time, dose: 30.0 mg/kg/injection, schedule: Q01DX005 (ip), vehicle: saline) 105 % of control; (endpoint: mean survival time, dose: 30.0 mg/kg/injection, schedule: Q01DX009 (ip), vehicle: saline) 108 % of control; (endpoint: mean survival time, dose: 33.0 mg/kg/injection, schedule: Q01DX009 (ip), vehicle: other) 100 % of control; (endpoint: mean survival time, dose: 50.0 mg/kg/injection, schedule: Q01DX009 (ip), vehicle: other) 95 % of control. Moreover, the T/C is, setting by setting: (endpoint: mean survival time, dose: 60.0 mg/kg/injection, schedule: Q01DX005 (ip), vehicle: saline) 101 % of control; (endpoint: mean survival time, dose: 60.0 mg/kg/injection, schedule: Q01DX009 (ip), vehicle: saline) 109 % of control; (endpoint: mean survival time, dose: 75.0 mg/kg/injection, schedule: Q01DX009 (ip), vehicle: other) 94 % of control; (endpoint: mean survival time, dose: 113.0 mg/kg/injection, schedule: Q01DX009 (ip), vehicle: other) 93 % of control; (endpoint: mean survival time, dose: 120.0 mg/kg/injection, schedule: Q01DX005 (ip), vehicle: saline) 107 % of control; (endpoint: mean survival time, dose: 120.0 mg/kg/injection, schedule: Q01DX009 (ip), vehicle: saline) 113 % of control. Moreover, the T/C (endpoint: mean survival time, dose: 240.0 mg/kg/injection, schedule: Q01DX005 (ip), vehicle: saline) is 105 % of control.

With `CN(N=O)C(=O)NC(=O)N(C)N=O`, the T/C is 107 % of control (endpoint: mean survival time, dose: 27.5 mg/kg/injection, schedule: Q01DX001 (ip), vehicle: carboxymethylcellulose (CMC)) and 104 % of control (endpoint: mean survival time, dose: 54.0 mg/kg/injection, schedule: Q01DX001 (ip), vehicle: carboxymethylcellulose (CMC)).

Consider `Cc1c(C)c(NC(=O)N(CCCl)N=O)c(C)c(C)c1NC(=O)N(CCCl)N=O`, for which the T/C reads like this: (endpoint: mean survival time, dose: 15.5 mg/kg/injection, schedule: Q01DX001 (ip), vehicle: other) 102 % of control; (endpoint: mean survival time, dose: 31.0 mg/kg/injection, schedule: Q01DX001 (ip), vehicle: other) 98 % of control; (endpoint: mean survival time, dose: 62.0 mg/kg/injection, schedule: Q01DX001 (ip), vehicle: other) 101 % of control; (endpoint: mean survival time, dose: 250.0 mg/kg/injection, schedule: Q01DX001 (ip), vehicle: other) 171 % of control and 175 % of control; (endpoint: mean survival time, dose: 375.0 mg/kg/injection, schedule: Q01DX001 (ip), vehicle: other) 182 % of control and 183 % of control; (endpoint: mean survival time, dose: 500.0 mg/kg/injection, schedule: Q01DX001 (ip), vehicle: other) 172 % of control and 178 % of control. Further, the T/C (endpoint: mean survival time, dose: 501.0 mg/kg/injection, schedule: Q01DX001 (ip), vehicle: other) was 93 % of control.

With `CC(Cl)CNC(=O)N(CC(C)Cl)N=O` (stereo not drawn), the T/C is 107 % of control (endpoint: mean survival time, dose: 250.0 mg/kg/injection, schedule: Q01DX001 (ip), vehicle: carboxymethylcellulose (CMC)); 112 % of control (endpoint: mean survival time, dose: 500.0 mg/kg/injection, schedule: Q01DX001 (ip), vehicle: carboxymethylcellulose (CMC)); 204 % of control (endpoint: mean survival time, dose: 1000.0 mg/kg/injection, schedule: Q01DX001 (ip), vehicle: carboxymethylcellulose (CMC)).

As to `O=NN(CCCl)C(=O)NC1[C@H](O)CCC[C@@H]1O` (stereo partly drawn), the T/C (endpoint: mean survival time, dose: 2.6 mg/kg/injection, schedule: Q01DX001 (ip), vehicle: saline) is 123 % of control; the T/C (endpoint: mean survival time, dose: 4.0 mg/kg/injection, schedule: Q01DX001 (ip), vehicle: saline) was 112 % of control; the T/C (endpoint: mean survival time, dose: 9.0 mg/kg/injection, schedule: Q01DX001 (ip), vehicle: saline) was 156 % of control; the T/C (endpoint: mean survival time, dose: 14.0 mg/kg/injection, schedule: Q01DX001 (ip), vehicle: saline) is 388 % of control; the T/C (endpoint: mean survival time, dose: 22.0 mg/kg/injection, schedule: Q01DX001 (ip), vehicle: saline) is 324 % of control.

Turning to `O=NN(CCF)C(=O)NC12CC3CC(CC(C3)C1)C2`, the T/C is 103 % of control (endpoint: mean survival time, dose: 10.0 mg/kg/injection, schedule: Q01DX001 (ip), vehicle: other); 101 % of control (endpoint: mean survival time, dose: 20.0 mg/kg/injection, schedule: Q01DX001 (ip), vehicle: other); 110 % of control (endpoint: mean survival time, dose: 40.0 mg/kg/injection, schedule: Q01DX001 (ip), vehicle: other); 120 % of control (endpoint: mean survival time, dose: 60.0 mg/kg/injection, schedule: Q01DX001 (ip), vehicle: other).

`CSc1ncnc2c1ncn2C1OC(CO)C(O)C1O` (stereo not drawn): the T/C is 113 % of control (endpoint: mean survival time, dose: 25.0 mg/kg/injection, schedule: Q01DX Z (ip), vehicle: saline) and 92 % of control (endpoint: mean survival time, dose: 50.0 mg/kg/injection, schedule: Q01DX Z (ip), vehicle: saline).

For `O=NN(CCCl)C(=O)NC1CCS(=O)(=O)C1` (stereo not drawn) (tested in a mixture with another compound), the T/C (endpoint: mean survival time, dose: 14.0 mg/kg/injection, schedule: Q01DX001 (oral), vehicle: other) was 172 % of control; the T/C (endpoint: mean survival time, dose: 16.0 mg/kg/injection, schedule: Q01DX001 (ip), vehicle: other) was 156 % of control; the T/C (endpoint: mean survival time, dose: 22.0 mg/kg/injection, schedule: Q01DX001 (oral), vehicle: other) was 217 % of control; the T/C (endpoint: mean survival time, dose: 36.0 mg/kg/injection, schedule: Q01DX001 (ip), vehicle: other) is 121 % of control; the T/C (endpoint: mean survival time, dose: 48.0 mg/kg/injection, schedule: Q01DX001 (oral), vehicle: other) was 116 % of control.

As to `COS(C)(=O)=O`, the T/C by setting is: (endpoint: median survival time, dose: 16.0 mg/kg/injection, schedule: Q01DX005 (ip), vehicle: saline) 104 % of control; (endpoint: median survival time, dose: 32.0 mg/kg/injection, schedule: Q01DX005 (ip), vehicle: saline) 99 % of control; (endpoint: median survival time, dose: 64.0 mg/kg/injection, schedule: Q01DX005 (ip), vehicle: saline) 99 % of control; (endpoint: median survival time, dose: 128.0 mg/kg/injection, schedule: Q01DX005 (ip), vehicle: saline) 101 % of control.

On to `CS(=O)(=O)CCN(N=O)C(=N)N[N+](=O)[O-]`, for which the T/C was 97 % of control (endpoint: mean survival time, dose: 12.0 mg/kg/injection, schedule: Q01DX Z (ip), vehicle: carboxymethylcellulose (CMC)); 100 % of control (endpoint: mean survival time, dose: 24.0 mg/kg/injection, schedule: Q01DX Z (ip), vehicle: carboxymethylcellulose (CMC)); 109 % of control (endpoint: mean survival time, dose: 48.0 mg/kg/injection, schedule: Q01DX Z (ip), vehicle: carboxymethylcellulose (CMC)); 90 % of control (endpoint: mean survival time, dose: 96.0 mg/kg/injection, schedule: Q01DX Z (ip), vehicle: carboxymethylcellulose (CMC)).

With `CCCCCCCCSc1ncnc2c1ncn2CCCC`, the T/C runs as follows: (endpoint: mean survival time, dose: 125.0 mg/kg/injection, schedule: Q01DX001 (ip), vehicle: saline) 106 % of control; (endpoint: mean survival time, dose: 250.0 mg/kg/injection, schedule: Q01DX001 (ip), vehicle: saline) 112 % of control; (endpoint: mean survival time, dose: 500.0 mg/kg/injection, schedule: Q01DX001 (ip), vehicle: saline) 106 % of control; (endpoint: mean survival time, dose: 1000.0 mg/kg/injection, schedule: Q01DX001 (ip), vehicle: saline) 101 % of control.

The record behind these values is PubChem BioAssay AID252 (DTP/NCI, 2004).
